This passage reports IC50 and Activity results from ChEMBL document CHEMBL6071148, “Synthesis and biological evaluation of novel 3,6- amide and thioamide substituted- 2,3,4,9-tetrahydro-1H-carbazoles for anti-cancer activity” (Eur J Med Chem, 2024).

What is called pIC50 is the negative decadic logarithm of the IC50, by convention in mol/L. In general, IC50 refers to the concentration needed to halve the response being measured.

Each structure is given as a SMILES string. pIC50: −log10 of the molar value. Calls of active or inactive are those of the source. The calls are words filed in the database; no cut-off is given here.

Data set [1] relates to HCT-116. Put plainly: Cytotoxicity against human HCT-116 cells assessed as inhibition of cell proliferation incubated for 72 hrs by MTT assay. It is filed as functional, cell-based. Conditions: HCT-116, 72 h. On the technique in general: Tetrazolium assays rely on reduction of a dye to a coloured formazan, in cell work by metabolically active cells.
The nature of data set [2]: Cytotoxicity against human MRC5 cells assessed as inhibition of cell proliferation incubated for 72 hrs by MTT assay. It is filed as toxicity, cell-based.
Data set [3] has as its system A549. In words: Cytotoxicity against human A549 cells assessed as inhibition of cell proliferation incubated for 72 hrs by MTT assay. Conditions: A549, 72 h. It is filed as functional, cell-based.
The subject of data set [4] is MCF7. Put plainly: Cytotoxicity against human MCF7 cells assessed as inhibition of cell proliferation incubated for 72 hrs by MTT assay. It is filed as functional, cell-based. Conditions: MCF7, 72 h.
In a further data set the test system is HL-60. Put plainly: Cytotoxicity against human HL-60 cells. It is filed as functional, cell-based.
The next data set deals with Acetylcholinesterase (Homo sapiens, UniProt P22303). Put plainly: Inhibition of AChE (unknown origin) by Ellman's method. (In general: Ellman's reagent forms a yellow product with free thiols.)
Data set [5] relates to MCF7. Put plainly: Induction of cell cycle arrest in human MCF7 cells assessed as accumulation of cells at G1 phase at IC50 incubated for 24 hrs by PI staining based flow cytometric analysis relative to control. It is filed as functional. (In general: In flow cytometry, cells or beads pass a laser one at a time.)
Data set [6] deals with A549. In words: Induction of cell cycle arrest in human A549 cells assessed as accumulation of cells at G1 phase at IC50 incubated for 48 hrs by PI staining based flow cytometric analysis (reference value: 53.5 +/- 4.01%). It is filed as functional.
Data set [7] relates to MCF7. In words: Induction of DNA damage in human MCF7 cells assessed as gammaH2AX positive cells at IC50 incubated for 48 hrs by PI staining based flow cytometric analysis (reference value: 7.58 +/- 1.23%). It is filed as functional.
Data set [8] has as its system HCT-116. Put plainly: Induction of apoptosis in human HCT-116 cells assessed as increase in apoptotic cells incubated for 24 hrs by Annexin-V and 7-AAD staining based flow cytometric analysis (reference value: 8.10 +/- 2.16%). It is filed as functional.
Data set [9] deals with HCT-116. In words: Induction of cell cycle arrest in human HCT-116 cells at IC50 incubated for 48 hrs by PI staining based flow cytometric analysis. It is filed as functional.
Data set [10] relates to A549. Put plainly: Induction of cell cycle arrest in human A549 cells assessed as accumulation of cells at G1 phase at IC50 incubated for 24 hrs by PI staining based flow cytometric analysis (reference value: 37.40 +/- 2.40%). It is filed as functional.
Data set [11] has as its system A549. In words: Induction of cell cycle arrest in human A549 cells assessed as accumulation of cells at G2 phase at IC50 incubated for 48 hrs by PI staining based flow cytometric analysis (reference value: 38.15 +/- 1.80%). It is filed as functional.
In data set [12] the test system is A549. Put plainly: Induction of apoptosis in human A549 cells assessed as apoptotic rate at IC50 incubated for 48 hrs by Annexin-V and 7-AAD staining based flow cytometric analysis (reference value: 6.56 +/- 1.17%). It is filed as functional.
Data set [13] has as its system MCF7. In words: Induction of cell cycle arrest in human MCF7 cells assessed as accumulation of cells at G2 phase at IC50 incubated for 24 hrs by PI staining based flow cytometric analysis relative to control. It is filed as functional.
In data set [14] the test system is MCF7. In words: Induction of apoptosis in human MCF7 cells assessed as increase in apoptotic cells incubated for 24 hrs by Annexin-V and 7-AAD staining based flow cytometric analysis (reference value: 5.70 +/- 1.56%). It is filed as functional.
Data set [15] deals with A549. Put plainly: Induction of apoptosis in human A549 cells assessed as apoptotic rate at IC50 incubated for 24 hrs by Annexin-V and 7-AAD staining based flow cytometric analysis (reference value: 4.56 +/- 0.81%). It is filed as functional.
In data set [16] the test system is A549. In words: Induction of cell cycle arrest in human A549 cells assessed as accumulation of cells at G2 phase at IC50 incubated for 24 hrs by PI staining based flow cytometric analysis (reference value: 23.45 +/- 1.62%). It is filed as functional.
Data set [17] concerns HCT-116. In words: Induction of DNA damage in human HCT-116 cells assessed as gammaH2AX positive cells at IC50 incubated for 48 hrs by PI staining based flow cytometric analysis (reference value: 6.24 +/- 1.94%). It is filed as functional.
Data set [18] concerns HCT-116. Put plainly: Induction of apoptosis in human HCT-116 cells assessed as increase in apoptotic cells incubated for 48 hrs by Annexin-V and 7-AAD staining based flow cytometric analysis (reference value: 6.82 +/- 1.05%). It is filed as functional.
The subject of data set [19] is A549. In words: Induction of DNA damage in human A549 cells assessed as gammaH2AX positive cells at IC50 incubated for 48 hrs by PI staining based flow cytometric analysis (reference value: 4.90 +/- 0.50%). It is filed as functional.
Data set [20] relates to MCF7. In words: Induction of cell cycle arrest in human MCF7 cells assessed as accumulation of cells at S phase at IC50 incubated for 24 hrs by PI staining based flow cytometric analysis relative to control. It is filed as functional.
Data set [21] relates to HCT-116. In words: Induction of cell cycle arrest in human HCT-116 cells assessed as accumulation of cells at G2 phase at IC50 incubated for 24 hrs by PI staining based flow cytometric analysis relative to control. It is filed as functional.
In data set [22] the test system is MCF7. In words: Induction of apoptosis in human MCF7 cells assessed as increase in apoptotic cells incubated for 48 hrs by Annexin-V and 7-AAD staining based flow cytometric analysis (reference value: 7.53 +/- 1.16%). It is filed as functional.
A further data set relates to Human papillomavirus. In words: Antiviral activity against Human papillomavirus. It is filed as functional, organism-based.
Data set [23] is described as follows: Cytotoxicity against human SGC cells assessed as reduction in cell viability incubated for 48 hrs by MTT assay. It is filed as functional, cell-based.
In data set [24] the test system is HCT-116. In words: Cytotoxicity against human HCT-116 cells assessed as reduction in cell viability incubated for 48 hrs by MTT assay. It is filed as functional, cell-based. Conditions: HCT-116, 48 h.
The nature of data set [25]: Cytotoxicity against human KB-R cells assessed as reduction in cell viability incubated for 48 hrs by MTT assay. It is filed as functional, cell-based.
The test system of data set [26] is A549. In words: Cytotoxicity against human A549 cells assessed as reduction in cell viability incubated for 48 hrs by MTT assay. It is filed as functional, cell-based. Conditions: A549, 48 h.
The next data set has as its system K562. In words: Cytotoxicity against human K562 cells assessed as reduction in cell viability incubated for 48 hrs by MTT assay. It is filed as functional, cell-based. Conditions: K562, 48 h.
Data set [27] deals with MCF7. Put plainly: Cytotoxicity against human MCF7 cells assessed as reduction in cell viability by SRB assay. It is filed as functional, cell-based.
The test system of data set [28] is HCT-116. In words: Cytotoxicity against human HCT-116 cells assessed as reduction in cell viability by SRB assay. It is filed as functional, cell-based.

Sequence of Acetylcholinesterase (P22303 whole entry): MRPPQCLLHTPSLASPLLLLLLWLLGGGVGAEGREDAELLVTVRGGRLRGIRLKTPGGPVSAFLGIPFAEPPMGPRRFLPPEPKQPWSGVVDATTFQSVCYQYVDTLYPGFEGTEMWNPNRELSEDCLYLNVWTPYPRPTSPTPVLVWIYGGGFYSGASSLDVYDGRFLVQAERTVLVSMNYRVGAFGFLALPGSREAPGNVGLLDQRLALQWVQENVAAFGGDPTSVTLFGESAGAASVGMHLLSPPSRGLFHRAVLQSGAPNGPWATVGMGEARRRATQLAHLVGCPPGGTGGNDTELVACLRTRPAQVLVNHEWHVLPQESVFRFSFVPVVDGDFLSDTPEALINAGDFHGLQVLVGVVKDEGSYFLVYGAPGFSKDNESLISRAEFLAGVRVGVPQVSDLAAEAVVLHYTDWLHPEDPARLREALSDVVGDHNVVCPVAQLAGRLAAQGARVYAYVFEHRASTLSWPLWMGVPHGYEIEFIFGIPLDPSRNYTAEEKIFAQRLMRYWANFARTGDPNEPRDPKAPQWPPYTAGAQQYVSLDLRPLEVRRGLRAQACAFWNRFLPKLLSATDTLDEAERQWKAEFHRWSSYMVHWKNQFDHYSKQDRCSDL

Take `CC(=O)Nc1ccc2[nH]c3c(c2c1)CC(NC(=O)c1cc2ccccc2[nH]1)CC3` (stereo not drawn): the pIC50 in the data set on HCT-116 [1], in the data set on A549 [3] and with MCF7 [4] was < 4.30 in each case. Also, in data set [2], the concentration for half-maximal inhibition (IC50) at 72 h was > 50 µM.

Regarding `CC(=O)Nc1ccc2[nH]c3c(c2c1)CC(NC(=O)c1ccc(Br)o1)CC3` (stereo not drawn), the negative-log IC50 (pIC50) with HCT-116 [1], in the data set on A549 [3] and with MCF7 [4] was < 4.30 throughout. Also, the concentration for half-maximal inhibition (IC50) at 72 h in data set [2] is > 50 µM.

As to `CC[C@]12CCCN3C(=O)C(=O)O[C@@]31c1c([nH]c3ccccc13)CC2`, the pIC50 with HL-60 was < 4.00.

Regarding `CC(=O)Nc1ccc2[nH]c3c(c2c1)CC(NC(=O)c1ccc(C)s1)CC3` (stereo not drawn), the pIC50 with HCT-116 [1], in the data set on A549 [3] and in the data set with MCF7 [4] was < 4.30 each time. Moreover, the IC50 at 72 h in [2] is > 50 µM.

`O=C1[C@H](O)C[C@]23CCCN1[C@@H]2c1c([nH]c2ccccc12)CC3` gave a pIC50 at Acetylcholinesterase of 4.41.

Take `CCc1ccc(C(=O)NC2CCc3[nH]c4ccc(NC(C)=O)cc4c3C2)o1` (stereo not drawn): the pIC50 with HCT-116 [1], in the data set on A549 [3] and in the data set with MCF7 [4] was < 4.30 each time. For the same compound, in data set [2], the IC50 at 72 h is > 50 µM.

`O=C1c2c(O)ccc(O)c2C(=O)c2c(NCCNCCO)ccc(NCCNCCO)c21` [MITOXANTRONE]: the Activity in the data set with MCF7 [5] is 44.4%; in the data set on A549 [6] it was 48.61%; with MCF7 [7] it was 23.01%; with HCT-116 [8] it was 32.01%; with A549 [10], 34.62%; with A549 [11] it was 29.8%. Also, the Activity in the data set with A549 [12] was 32.27%; with MCF7 [13] it was 33.2%; with MCF7 [14], 11.55%; with A549 [15] it was 30.26%; with A549 [16], 20.2%; with HCT-116 [17] it was 32.47%. Besides, the Activity in the data set with HCT-116 [18] worked out at 31.1%; in the data set with A549 [19], 14.22%; with MCF7 [20] it was 17.9%; in the data set on HCT-116 [21], 26.3%; in the data set on MCF7 [22], 67.63%. The values for the negative-log IC50 (pIC50) in the data set with HCT-116 [1], in the data set with A549 [3] and with MCF7 [4] were 6.90, 6.79 and 7.74, respectively. In addition, in data set [2], the IC50 at 72 h is 0.517 µM. Besides, in the data set with HCT-116 [9], the result was Active.

As for `CC(=O)Nc1ccc2[nH]c3c(c2c1)CC(NC(C)=O)CC3` (stereo not drawn), the negative logarithm of the IC50 (pIC50) in the data set with HCT-116 [1], in the data set on A549 [3] and in the data set on MCF7 [4] was < 4.30 throughout. Also, the IC50 at 72 h in data set [2] is > 50 µM.

For `CC(=O)Nc1ccc2[nH]c3c(c2c1)CC(NC(=O)OC(C)(C)C)CC3` (stereo not drawn), the negative logarithm of the IC50 (pIC50) with HCT-116 [1], in the data set on A549 [3] and with MCF7 [4] was < 4.30 in each case. Further, the IC50 at 72 h in [2] is > 50 µM.

For the compound `CC(=O)Nc1ccc2[nH]c3c(c2c1)CC(NC(=O)c1ccccc1)CC3` (stereo not drawn), the pIC50 in the data set with HCT-116 [1], in the data set with A549 [3] and in the data set on MCF7 [4] was < 4.30 throughout. Further, in data set [2], the concentration for half-maximal inhibition (IC50) at 72 h was > 50 µM.

In the data set on Human papillomavirus, `O=C(N[C@@H]1CCCc2c1[nH]c1ccc(Cl)cc21)c1ccccn1` showed a negative logarithm of the IC50 (pIC50) of 8.30.

`CCN(CC)C1CCc2c(n(C)c3ccccc23)C1=O` (stereo not drawn): the pIC50 in data set [23] was 4.61; in the data set with HCT-116 [24], 5.53; in data set [25], 3.93; in the data set with A549 [26] it was 3.96; in the data set with K562, 4.76.

Take `CC(=O)Nc1ccc2[nH]c3c(c2c1)CC(NC(=O)c1ccc(C)o1)CC3` (stereo not drawn): the pIC50 in the data set with HCT-116 [1], in the data set on A549 [3] and with MCF7 [4] was < 4.30 in each case. For the same compound, the IC50 at 72 h in [2] was > 50 µM.

As to `O=C(CSC(=S)N1CCN(c2ccc(Cl)cc2)CC1)n1c2c(c3ccccc31)CCCC2`, the negative-log IC50 (pIC50) in the data set on MCF7 [27] is 5.14; in the data set with HCT-116 [28], 5.08.

Regarding `CC(=O)NC1CCc2[nH]c3ccc(S(N)(=O)=O)cc3c2C1` (stereo not drawn), the negative logarithm of the IC50 (pIC50) in the data set on HCT-116 [1], in the data set with A549 [3] and in the data set with MCF7 [4] was < 4.30 in each case. For the same compound, the IC50 at 72 h in data set [2] is > 50 µM.
